From US20080268078A1, “Composition for inhibiting nitric oxide and/or prostaglandin E2 synthesis and method for inhibiting inflammation” (Yangsen Biotechnology Co., Ltd., priority 2007, published 2008)
pIC50: −log10 of the molar value. Like-named read-outs stand apart in the source and are kept apart here.

What was measured:
Type in all cases: cell-based, murine
[1] = tested on: nitric oxide synthesis in RAW 264.7 cells; test: Suppression of nitric oxide synthesis (nitrite, Griess reagent) in LPS-stimulated RAW 264.7 cells; conditions: Mus musculus, read-out: IC50 (inhibitory concentration at 50%) of nitric oxide synthesis
Procedure: (§1) The murine macrophage/monocyte RAW 264.7 cells were obtained from the American Type Culture Collection (ATCC) and maintained in Dulbecco's modified Eagle's medium (DMEM) with 10% fetal bovine serum at 37° C. in 5% CO2 humidified air. In this example, cells were plated at a density of 10^6 cells/ml in 96-well plates for 24 hours, and then stimulated with LPS (100 ng/ml) in the presence of different concentrations of butylidene phthalide, citronellol, or geraniol. After 20 hours, the supernatant of the medium was collected and analyzed. In nitric oxide analysis, the concentration of butylidene phthalide was 250 μM, 500 μM, and 1000 μM, the concentration of citronellol was 50 μM, 500 μM, and 750 μM, and the concentration of geraniol was 50 μM, 500 μM, 750 μM, and 1000 μM, separately. In the control group, the cells were not treated with butylidene phthalide, citronellol, or geraniol. Because nitric oxide was unstable, nitrite was detected (Green et al., 1981; Kang et al., 1999a). 80 μl of the culture medium were mixed with an equal volume of Griess reagent (0.1% naphthylethylenediamine dihydrochloride and 1% sulfanilamide in 5% phosphoric acid), and then the absorbance at 550 nm was measured. The nitrite concentration was determined using a curve calibrated on sodium nitrite standards. […] Referring to FIGS. 1a-1c, butylidene phthalide, citronellol, and geraniol can suppress the synthesis of nitric oxide, wherein the suppression ability of citronellol was better than butylidene phthalide or geraniol, separately.

[2] = tested on: prostaglandin E2 synthesis in RAW 264.7 cells; test: Suppression of prostaglandin E2 synthesis (EIA) in LPS-stimulated RAW 264.7 cells; conditions: Mus musculus, read-out: IC50 of prostaglandin E2 synthesis
Procedure: as §1
The same procedure carried out in Example 1 was repeated with the exception that the detection of the nitric oxide was changed to detect prostaglandin E2 by prostaglandin E2-monoclonal enzyme immunoassay kit (EIA, Cayman Chem., Ann Arbor, Mich.). The concentration of butylidene phthalide was 5 μM, 50 μM, 250 μM, 500 μM, and 1000 μM, the concentration of citronellol was 50 μM, 500 μM, and 750 μM and the concentration of geraniol was 50 μM, 500 μM, and 750 μM, separately. […]

RAW264.7 cell = test: Cell viability assay (MTT); conditions: 50 μM to 1000 μM (citronellol to 750 μM), LPS-stimulated, 20 hours
[3] = RAW264.7, RAW 264.7 cells, LPS 100 ng/ml, 20 hours, nitrite by Griess reagent
[4] = RAW264.7, RAW 264.7 cells, LPS 100 ng/ml, 20 hours, PGE2 EIA kit

pIC50 [1, 3] | pIC50 [2, 4] | SMILES | RAW264.7 cell viability by MTT assay (RAW264.7 cell) | pIC50 ([1]; RAW264.7, 20 h) | pIC50 ([2]; RAW264.7, 20 h)
3.39 | 3.43 | CC(C)=CCC/C(C)=C/CO [geraniol] | – | – | –
– | – | CCCC=C1OC(=O)c2ccccc21 [butylidene phthalide] | did not affect cell viability | 3.39 | 4.30
3.53 | 4.57 | CC(C)=CCCC(C)CCO (stereo not shown) [citronellol] | – | – | –
